# Reference: ChEMBL document CHEMBL1201862, “PubChem BioAssay data set” (2004)
#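 The compound was tested at five concentrations on cells cultured in 96-well plates, with a 48-hour exposure period. GI50 is the concentration that inhibits growth by half.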 The source made the active and inactive calls. Cut-off read from the data, not from the text of the source: active = GI50 up to about 1.1 µM and inactive = higher.
# Columns and labels:
# Test in all cases: NCI tumour cell line growth inhibition, 48 h
# [1] = system: ACHN
# [2] = system: CCRF-CEM
# [3] = system: HCT-15
# [4] = system: HL-60
# [5] = system: HOP-92
# [6] = system: HT-29
# [7] = system: K562
# [8] = system: MCF7
# [9] = system: MOLT-4
# [10] = system: OVCAR-4
# [11] = system: SK-MEL-28
# [12] = system: SK-MEL-2
# [13] = system: SK-MEL-5
# [14] = system: SK-OV-3
# [15] = system: SN12C
# [16] = system: SW-620
# [17] = system: UACC-257
# [18] = system: A498
# [19] = system: BT-549
SMILES,GI50 [1],GI50 [2],GI50 [3] [µM],GI50 [4],GI50 [5],GI50 [6],GI50 [7],GI50 [8],GI50 [9],GI50 [10],GI50 [11],GI50 [12],GI50 [13],GI50 [14],GI50 [15],GI50 [16],GI50 [17],GI50 [18],GI50 [19]
O=C1NC(Nc2ccccc2)=NC(C(F)(F)F)(C(F)(F)F)N1,35.1 µM (inactive),48.6 µM (inactive),51.1,31.6 µM (inactive),20.7 µM (inactive),56.2 µM (inactive),49.3 µM (inactive),37.9 µM (inactive),54.5 µM (inactive),39.6 µM (inactive),47.2 µM (inactive),19.9 µM (inactive),25.1 µM (inactive),64 µM (inactive),36.6 µM (inactive),71.8 µM (inactive),59.7 µM (inactive),–,–
O=[N+]([O-])c1ccc(N/N=C/CC(O)(C(F)(F)F)C(F)(F)F)c([N+](=O)[O-])c1,3.52 µM (inactive),3.99 µM (inactive),3.01,4.07 µM (inactive),2.17 µM (inactive),4.38 µM (inactive),3.55 µM (inactive),3.78 µM (inactive),3.78 µM (inactive),4.99 µM (inactive),7.78 µM (inactive),2.21 µM (inactive),4.55 µM (inactive),4.8 µM (inactive),3.41 µM (inactive),7.33 µM (inactive),3.65 µM (inactive),3.78 µM (inactive),–
COc1ccc(/C(=N/Nc2ccccc2)C(c2ccc(OC)cc2)C2OC(=O)c3ccccc32)cc1 (stereo unspecified),97.1 µM (inactive),79.8 µM (inactive),> 100,–,–,90.6 µM (inactive),31.8 µM (inactive),–,25.6 µM (inactive),> 100 µM (inactive),–,> 100 µM (inactive),33.2 µM (inactive),–,> 100 µM (inactive),–,76 µM (inactive),> 100 µM (inactive),–
COC(=O)/C=C/COCC1C2CCC(=O)C21 (stereo unspecified),> 100 µM (inactive),> 100 µM (inactive),> 100,–,> 100 µM (inactive),> 100 µM (inactive),> 100 µM (inactive),> 100 µM (inactive),> 100 µM (inactive),> 100 µM (inactive),> 100 µM (inactive),> 100 µM (inactive),> 100 µM (inactive),> 100 µM (inactive),> 100 µM (inactive),> 100 µM (inactive),> 100 µM (inactive),–,> 100 µM (inactive)
C(=C\c1ccccc1)/Cn1nc(-c2ccccc2)nc1-c1cnccn1,–,> 100 µM (inactive),> 100,> 100 µM (inactive),35.9 µM (inactive),> 100 µM (inactive),> 100 µM (inactive),> 100 µM (inactive),> 100 µM (inactive),68.9 µM (inactive),> 100 µM (inactive),–,29.5 µM (inactive),66.7 µM (inactive),> 100 µM (inactive),> 100 µM (inactive),> 100 µM (inactive),–,> 100 µM (inactive)
N=C(N)Nc1nc2cc(N)ccc2o1,> 100 µM (inactive),> 100 µM (inactive),> 100,> 100 µM (inactive),> 100 µM (inactive),> 100 µM (inactive),> 100 µM (inactive),–,> 100 µM (inactive),> 100 µM (inactive),> 100 µM (inactive),> 100 µM (inactive),–,> 100 µM (inactive),> 100 µM (inactive),> 100 µM (inactive),> 100 µM (inactive),> 100 µM (inactive),–
CC(=O)NC(C)(C)C1CCC(C)=C(c2ccccc2)C1 (stereo unspecified),–,96.8 µM (inactive),74,31.1 µM (inactive),19.5 µM (inactive),> 100 µM (inactive),42 µM (inactive),> 100 µM (inactive),> 100 µM (inactive),> 100 µM (inactive),> 100 µM (inactive),–,> 100 µM (inactive),> 100 µM (inactive),> 100 µM (inactive),> 100 µM (inactive),> 100 µM (inactive),–,> 100 µM (inactive)
O=C(c1ccccc1)c1ccc2[nH]c(-c3c(Cl)c(Cl)c(Cl)c(Cl)c3C(=O)N/N=C\C=C\c3ccccc3)nc2c1,19.8 µM (inactive),12 µM (inactive),32.5,37.8 µM (inactive),41.1 µM (inactive),45 µM (inactive),19.4 µM (inactive),20.7 µM (inactive),17.7 µM (inactive),26.1 µM (inactive),51.3 µM (inactive),37.1 µM (inactive),26.9 µM (inactive),> 100 µM (inactive),31.3 µM (inactive),54.1 µM (inactive),83.9 µM (inactive),–,47.1 µM (inactive)
CS(=O)(=O)OCCN(CCOS(C)(=O)=O)c1ccc(/C=N/N=c2/nc[nH]c3nc[nH]c23)cc1,17.4 µM (inactive),8.09 µM (inactive),31,6.04 µM (inactive),16.9 µM (inactive),17.8 µM (inactive),24.9 µM (inactive),–,4.84 µM (inactive),22.7 µM (inactive),19.3 µM (inactive),20.4 µM (inactive),15.9 µM (inactive),26.2 µM (inactive),35.2 µM (inactive),16 µM (inactive),19.8 µM (inactive),25.7 µM (inactive),–
CCCC(=O)NC1=C(NCC)C(=O)c2ccccc2C1=O,> 100 µM (inactive),> 100 µM (inactive),39.8,40.5 µM (inactive),> 100 µM (inactive),44.1 µM (inactive),50.8 µM (inactive),63.5 µM (inactive),73.3 µM (inactive),> 100 µM (inactive),95.7 µM (inactive),–,74.1 µM (inactive),> 100 µM (inactive),> 100 µM (inactive),33.4 µM (inactive),39.4 µM (inactive),–,> 100 µM (inactive)
CC(C)CC(NC(=O)C(Cc1ccccc1)NC(=O)[C@H]1CC[C@H](NC(=O)C(Cc2ccc(OC(C)(C)C)cc2)NC(=O)OC(C)(C)C)C1)C(N)=O (stereo partly specified),39.8 µM (inactive),14.6 µM (inactive),18,67 µM (inactive),23.8 µM (inactive),18.9 µM (inactive),17 µM (inactive),17.3 µM (inactive),12.5 µM (inactive),29 µM (inactive),20.2 µM (inactive),20.2 µM (inactive),1.07 µM (active),44.7 µM (inactive),17.7 µM (inactive),29.2 µM (inactive),19.7 µM (inactive),39.7 µM (inactive),–
NC1=Nc2ccccc2Sc2ccccc21,> 100 µM (inactive),> 100 µM (inactive),> 100,> 100 µM (inactive),32.7 µM (inactive),> 100 µM (inactive),82.6 µM (inactive),–,> 100 µM (inactive),> 100 µM (inactive),> 100 µM (inactive),> 100 µM (inactive),91.8 µM (inactive),> 100 µM (inactive),> 100 µM (inactive),> 100 µM (inactive),> 100 µM (inactive),84.9 µM (inactive),–
Cn1c(=O)c2c(nc3[nH]c(=O)c(Br)cn32)n(C)c1=O,> 100 µM (inactive),> 100 µM (inactive),> 100,> 100 µM (inactive),> 100 µM (inactive),> 100 µM (inactive),> 100 µM (inactive),–,> 100 µM (inactive),> 100 µM (inactive),> 100 µM (inactive),> 100 µM (inactive),> 100 µM (inactive),> 100 µM (inactive),> 100 µM (inactive),> 100 µM (inactive),> 100 µM (inactive),> 100 µM (inactive),> 100 µM (inactive)
COC(=O)C1(Cc2ccccc2)Cc2c(C)ccc(C)c2C1=O (stereo unspecified),26.9 µM (inactive),34.8 µM (inactive),31,20.2 µM (inactive),20.1 µM (inactive),19.8 µM (inactive),30.5 µM (inactive),28.7 µM (inactive),18.7 µM (inactive),32.4 µM (inactive),42.5 µM (inactive),–,11.3 µM (inactive),35.3 µM (inactive),47.8 µM (inactive),40.6 µM (inactive),25.8 µM (inactive),46.8 µM (inactive),–
COC(=O)Cc1cccc2c1CCC2=O,> 100 µM (inactive),> 100 µM (inactive),> 100,> 100 µM (inactive),> 100 µM (inactive),> 100 µM (inactive),> 100 µM (inactive),> 100 µM (inactive),> 100 µM (inactive),> 100 µM (inactive),> 100 µM (inactive),–,> 100 µM (inactive),> 100 µM (inactive),> 100 µM (inactive),> 100 µM (inactive),> 100 µM (inactive),> 100 µM (inactive),–
CC(=O)Nc1ccc(CNc2cc(=O)n(C)c(=O)[nH]2)cc1,> 100 µM (inactive),> 100 µM (inactive),> 100,> 100 µM (inactive),> 100 µM (inactive),> 100 µM (inactive),> 100 µM (inactive),> 100 µM (inactive),> 100 µM (inactive),> 100 µM (inactive),> 100 µM (inactive),> 100 µM (inactive),> 100 µM (inactive),> 100 µM (inactive),> 100 µM (inactive),> 100 µM (inactive),> 100 µM (inactive),–,> 100 µM (inactive)
CCOC(=O)NC(NC(C)CC)(C(F)(F)F)C(F)(F)F (stereo unspecified),> 100 µM (inactive),> 100 µM (inactive),> 100,> 100 µM (inactive),> 100 µM (inactive),> 100 µM (inactive),> 100 µM (inactive),> 100 µM (inactive),> 100 µM (inactive),> 100 µM (inactive),> 100 µM (inactive),> 100 µM (inactive),> 100 µM (inactive),–,> 100 µM (inactive),42.3 µM (inactive),> 100 µM (inactive),> 100 µM (inactive),–
